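96-well plates; 48 h exposure; 5 concentrations. Endpoints by linear interpolation between flanking doses. Not reached: highest tested concentration assigned. GI50 marks 50% less growth.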 Calls of active or inactive are those of the source. Cut-off read from the data, not from the text of the source: active = GI50 up to about 1.1 µM and inactive = higher.
Tests used:
Experiment in all cases: growth of human tumour cells (NCI), 48 h
UACC-257 = test system: UACC-257
HL-60 = test system: HL-60
RXF 393 = test system: RXF 393
U-251 = test system: U-251
OVCAR-4 = test system: OVCAR-4
HOP-92 = test system: HOP-92
HT-29 = test system: HT-29
SNB-75 = test system: SNB-75
SK-MEL-5 = test system: SK-MEL-5
SF-539 = test system: SF-539
SN12C = test system: SN12C
MOLT-4 = test system: MOLT-4
IGROV-1 = test system: IGROV-1
SNB-19 = test system: SNB-19
CAKI-1 = test system: CAKI-1
RPMI-8226 = test system: RPMI-8226
UACC-62 = test system: UACC-62
HOP-62 = test system: HOP-62
OVCAR-3 = test system: OVCAR-3
SK-MEL-2 = test system: SK-MEL-2

Measured: GI50

Cc1c2c(cc3c1[nH]c1ccccc13)C=NCC2
inactive: UACC-257 7.83 µM | HL-60 5.78 µM | RXF 393 6.89 µM | U-251 13.4 µM | OVCAR-4 16.6 µM | HOP-92 3.18 µM | HT-29 14.2 µM | SNB-75 10.6 µM | SK-MEL-5 6.41 µM | SF-539 6.37 µM | SN12C 19 µM | MOLT-4 7.69 µM | IGROV-1 16.2 µM | SNB-19 18.2 µM | CAKI-1 11.3 µM | RPMI-8226 10.5 µM | UACC-62 8.49 µM | HOP-62 31.8 µM | OVCAR-3 1.26 µM | SK-MEL-2 10.1 µM

N=C(N)Nc1ncccc1[N+](=O)[O-]
inactive: UACC-257 23.6 µM | HL-60 19.7 µM | RXF 393 > 100 µM | U-251 > 31.6 µM | OVCAR-4 > 100 µM | HOP-92 > 100 µM | HT-29 40.6 µM | SNB-75 > 100 µM | SK-MEL-5 38.9 µM | SF-539 53.6 µM | SN12C > 100 µM | MOLT-4 > 100 µM | IGROV-1 > 93.8 µM | SNB-19 > 100 µM | CAKI-1 > 100 µM | RPMI-8226 > 95.1 µM | UACC-62 > 100 µM | HOP-62 > 100 µM | OVCAR-3 25.1 µM | SK-MEL-2 > 100 µM

From ChEMBL document CHEMBL1201862, “PubChem BioAssay data set” (2004)
